Read-outs that look alike come from different tables or passages of the source.

We go through four compounds from article PMC6467700 (Journal of medicinal chemistry, 2019).

For assay [1], the target named is T1, MOR (Mus musculus, UniProt P42866). In words: Competition radioligand binding at the MOR. The note with it: [3H]naloxone, CHO cells expressing mouse MOR.
Assay [2] deals with MOR. As to conditions: peripherally selective MOR antagonist; cited from earlier work.
The target of assay [3] is T1, MOR. As to conditions: cited from earlier work.
Assay [4] deals with T1, MOR. As to conditions: read-out: Ki (nM) MOR; ref 57a; cited from earlier work.
Assay [5] has as its target DOR (Mus musculus, UniProt P32300). The note with it: ref 57a, cited from earlier work.
In assay [6] the target is T2, KOR (Mus musculus, UniProt P33534). The note with it: ref 57a, cited from earlier work.
T2 sequence (P33534 whole entry): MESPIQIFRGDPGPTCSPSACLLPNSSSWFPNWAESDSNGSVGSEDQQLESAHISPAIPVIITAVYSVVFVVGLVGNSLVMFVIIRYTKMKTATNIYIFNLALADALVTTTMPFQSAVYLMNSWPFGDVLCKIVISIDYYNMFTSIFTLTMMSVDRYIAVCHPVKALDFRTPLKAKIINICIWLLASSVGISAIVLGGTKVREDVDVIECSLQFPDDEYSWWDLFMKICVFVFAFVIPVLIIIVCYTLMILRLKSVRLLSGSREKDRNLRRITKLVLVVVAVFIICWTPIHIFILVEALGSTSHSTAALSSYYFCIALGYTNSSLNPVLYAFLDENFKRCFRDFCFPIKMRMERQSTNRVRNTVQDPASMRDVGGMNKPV
Assay [7] has as its target T2, KOR. The note with it: read-out: Ki,κ; 50a; cited from earlier work.

T1 sequence (P42866 whole entry): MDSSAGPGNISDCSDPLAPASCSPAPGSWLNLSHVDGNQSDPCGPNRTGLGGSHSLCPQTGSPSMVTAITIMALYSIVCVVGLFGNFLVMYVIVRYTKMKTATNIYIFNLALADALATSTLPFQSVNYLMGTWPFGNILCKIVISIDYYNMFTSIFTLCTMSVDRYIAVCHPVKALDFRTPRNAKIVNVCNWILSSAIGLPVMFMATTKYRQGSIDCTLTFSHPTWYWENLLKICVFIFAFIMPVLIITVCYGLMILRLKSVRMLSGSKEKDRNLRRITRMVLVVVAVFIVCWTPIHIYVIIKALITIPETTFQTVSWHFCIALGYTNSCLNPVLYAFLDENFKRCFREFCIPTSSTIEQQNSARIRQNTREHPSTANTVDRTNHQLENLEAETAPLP
DOR, sequence (P32300 whole entry): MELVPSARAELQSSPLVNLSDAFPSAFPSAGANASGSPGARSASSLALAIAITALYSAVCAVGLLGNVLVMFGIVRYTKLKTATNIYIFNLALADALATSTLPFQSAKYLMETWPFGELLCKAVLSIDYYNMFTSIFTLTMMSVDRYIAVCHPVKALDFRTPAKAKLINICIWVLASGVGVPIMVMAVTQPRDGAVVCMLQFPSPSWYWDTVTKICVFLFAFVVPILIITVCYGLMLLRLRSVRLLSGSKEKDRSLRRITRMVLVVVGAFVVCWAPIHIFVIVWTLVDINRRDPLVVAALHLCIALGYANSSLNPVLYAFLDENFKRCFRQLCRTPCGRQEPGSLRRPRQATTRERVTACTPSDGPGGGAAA

Consider `COC(=O)c1cnccc1C(=O)N[C@@H]1CC[C@@]2(O)[C@H]3Cc4ccc(O)c5c4[C@@]2(CCN3CC2CC2)[C@H]1O5` [Compound 6, 17-Cyclopropylmethyl-3,14β-dihydroxy-4,5α-epoxy-6β-[(3′-methylformate-4′-pyridyl)acetamido]morphinan], for which the “Ki (nM) MOR” value in assay [1] is recorded as “nanomolar binding affinity”.
On to `O=C(N[C@@H]1CC[C@@]2(O)[C@H]3Cc4ccc(O)c5c4[C@@]2(CCN3CC2CC2)[C@H]1O5)c1ccncc1` [NAP, 17-cyclopropylmethyl-3,14β-dihydroxy-4,5α-epoxy-6β-(4′-pyridylcarboxamido)-morphinan], for which the ED50 in assay [2] was 8.8 µg/kg. Moreover, the “MOR [35S]GTPγS Binding % Emax of DAMGO” value in assay [3] (ref 44a) is recorded as 22.72 ± 0.84%.
Turning to `Cc1cnccc1C(=O)N[C@@H]1CC[C@@]2(O)[C@H]3Cc4ccc(O)c5c4[C@@]2(CCN3CC2CC2)[C@H]1O5` [NMP, 17-cyclopropylmethyl-3,14β-dihydroxy-4,5α-epoxy-6β-{[4′-(3′-methylpyridyl)]carboxamido}morphinan], the Ki in assay [4] is 0.58 ± 0.25 nM; in assay [5] (read-out: Ki (nM) DOR), 273.6 ± 1.8 nM; in assay [6] (read-out: Ki (nM) KOR), 96.7 ± 12.2 nM. In addition, the “Selectivity δ/μ” value in assay [5] is reported as 470. Moreover, the “Selectivity κ/μ” value in assay [6] is reported as 166. For the same compound, the 50% effective concentration (EC50) in assay [3] (read-out: MOR [35S]GTPγS Binding EC50, ref 57a) was 1.52 ± 0.26 nM. Also, the “MOR [35S]GTPγS Binding % Emax of DAMGO” value in assay [3] (ref 57a) was 30.63 ± 0.55%.
As for `Oc1ccc2c3c1O[C@H]1c4[nH]c5c(c4C[C@@]4(O)[C@@H](C2)N(CC2CC2)CC[C@]314)C[C@@]1(O)[C@H]2Cc3ccc(O)c4c3[C@@]1(CCN2CC1CC1)[C@H]5O4` [norBNI], the Ki in assay [7] was 1.8 nM.
